Test results: the supplement of paper PMC4862054

Key:
Test in all cases: normalised response (% of control), CellTiter-Glo; higher = more viable cells (100 = DMSO, 0 = benzethonium chloride kill control)
Settings in all cases: incubation time: 72 h
BT-549 = tested on: BT-549
In short: (§1)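 Breast cancer cell lines (20 µl suspension) were seeded into 384-well plates holding compound at 5 concentrations in 10-fold steps over a compound-specific 10,000-fold range, then incubated 72 h. CellTox Green fluorescence (485/520 nm) was read first, then CellTiter-Glo luminescence after 10 min at room temperature. Each plate was normalised to 0.1 % DMSO (100) and a positive kill control (0). Each value is the normalised signal at a single concentration of the series.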

HCC1143 = tested on: HCC1143
In short: as §1

DU-4475 = tested on: DU-4475
In short: as §1

MFM-223 = tested on: MFM-223
In short: as §1

HDQ-P1 = tested on: HDQ-P1
In short: as §1

CAL-148 = tested on: CAL-148
In short: as §1

MDA-MB-453 = tested on: MDA-MB-453
In short: as §1

HCC1599 = tested on: HCC1599
In short: as §1

Hs578T = tested on: Hs578T
In short: as §1

SK-BR-3 = tested on: SK-BR-3
In short: as §1

BT-474 = tested on: BT-474
In short: as §1

MDA-MB-231 = tested on: MDA-MB-231
In short: as §1

CAL-51 = tested on: CAL-51
In short: as §1

CAL-120 = tested on: CAL-120
In short: as §1

MCF-10A = tested on: MCF-10A
In short: as §1

CAL-85-1 = tested on: CAL-85-1
In short: as §1

HCC1937 = tested on: HCC1937
In short: as §1

MDA-MB-468 = tested on: MDA-MB-468
In short: as §1

MDA-MB-436 = tested on: MDA-MB-436
In short: as §1

Row | SMILES | normalised response (BT-549) [%] | normalised response (HCC1143) [%] | normalised response (DU-4475) [%] | normalised response (MFM-223) [%] | normalised response (HDQ-P1) [%] | normalised response (CAL-148) [%] | normalised response (MDA-MB-453) [%] | normalised response (HCC1599) [%] | normalised response (Hs578T) [%] | normalised response (SK-BR-3) [%] | normalised response (BT-474) [%] | normalised response (MDA-MB-231) [%] | normalised response (CAL-51) [%] | normalised response (CAL-120) [%] | normalised response (MCF-10A) [%] | normalised response (CAL-85-1) [%] | normalised response (HCC1937) [%] | normalised response (MDA-MB-468) [%] | normalised response (MDA-MB-436) [%]
1 | COc1cc(Nc2ncc(F)c(Nc3ccc4c(n3)N(COP(=O)(O)O)C(=O)C(C)(C)O4)n2)cc(OC)c1OC [Fostamatinib] (2.5 nM) | 102 | 102 | 93.8 | 98.8 | 110 | 97.7 | 104 | 87.7 | 102 | 92.7 | 103 | 96.2 | 73.5 | 105 | 97.7 | 99.7 | 99.6 | 96.7 | 92.9
2 | CC(C)n1nc(-c2ccc3oc(N)nc3c2)c2c(N)ncnc21 [INK128] (1 nM) | 89 | 94.5 | 94.1 | 90.1 | 95.8 | 93.2 | 88.3 | 100 | 98.9 | 85.9 | 88.9 | 95.9 | 116 | 92.2 | 96.2 | 96.7 | 96.9 | 93.6 | 96.5
3 | CC(C)(C)Cn1c(N)nc2ccc(-c3[nH]c(C(C)(C)C)nc3-c3ccc(F)cc3)nc21 (1 nM) | 103 | 104 | 98.1 | 106 | 101 | 110 | 110 | 104 | 95.4 | 104 | 103 | 99.3 | 117 | 98.8 | 109 | 99.9 | 105 | 102 | 101
4 | CC(C)NC[C@@H](C(=O)N1CCN(c2ncnc3c2[C@H](C)C[C@H]3O)CC1)c1ccc(Cl)cc1 [GDC-0068] (10 nM) | 98.2 | 103 | 105 | 98.8 | 96.1 | 96.8 | 91.1 | 90.8 | 100 | – | 96.8 | 110 | 108 | 99.8 | 103 | 95.6 | 97 | 95.7 | 94.4
5 | COc1cc2c(cc1-c1c(C)noc1C)ncc1[nH]c(=O)n([C@H](C)c3ccccn3)c12 [I-BET151] (10 nM) | 91.9 | 107 | 103 | 103 | 97.9 | 111 | 91.7 | 100 | 99 | – | 98 | 105 | 94.3 | 100 | 108 | 99.4 | 98.5 | 99.2 | 101
6 | N[C@@H](Cc1ccc(N(CCCl)CCCl)cc1)C(=O)O [Melphalan] (1.25 nM) | 97.8 | 98.7 | 95.5 | 95.1 | 106 | 93.2 | 93.3 | 116 | 109 | 96.3 | 98.7 | 100 | 114 | 100 | 104 | 96.5 | 103 | 91.7 | 109
7 | Nc1nc(Cl)nc2c1ncn2[C@@H]1O[C@H](CO)[C@@H](O)[C@@H]1F [Clofarabine] (10 nM) | 98.3 | 102 | 102 | 101 | 96.8 | 107 | 91.3 | 95.2 | 105 | – | 102 | 93.5 | 72.2 | 101 | 105 | 105 | 95.8 | 98.9 | 95.1
8 | CO[C@H]1C[C@@H]2CC[C@@H](C)[C@@](O)(O2)C(=O)C(=O)N2CCCC[C@H]2C(=O)O[C@H]([C@H](C)C[C@@H]2CC[C@@H](O)[C@H](OC)C2)CC(=O)[C@H](C)/C=C(\C)[C@@H](O)[C@@H](OC)C(=O)[C@H](C)C[C@H](C)/C=C/C=C/C=C/1C [Sirolimus] (0.01 nM) | 97.6 | 92.4 | 104 | 95.5 | 100 | 91.1 | 103 | 98.3 | 94.7 | 106 | 99.1 | 93.6 | 87.1 | 95.9 | 106 | 89.9 | 105 | 94.1 | 103
9 | CN1CCc2c(c3ccccc3n2Cc2ccc(C(=O)NO)cc2)C1 [Tubastatin A] (1 nM) | 104 | 98 | 102 | 101 | 96.4 | 94.9 | 103 | 101 | 97.6 | 99.3 | 97.3 | 96.8 | 88.4 | 92.7 | 99.8 | 103 | 97.6 | 99.5 | 87.7
10 | Cc1cc2c(F)c(Oc3ncnn4cc(OC[C@@H](C)O)c(C)c34)ccc2[nH]1 [Brivanib] (1 nM) | 95.2 | 104 | 111 | 110 | 97.8 | 111 | 107 | 103 | 103 | – | 107 | 104 | 74.5 | 98.9 | 107 | 102 | 102 | 108 | 102
11 | CC(C)C(=O)Nc1ccc([N+](=O)[O-])c(C(F)(F)F)c1 [Flutamide] (10 nM) | 96.4 | 98.6 | 102 | 99.6 | 98.4 | 92.1 | 109 | 105 | 98.6 | 124 | 101 | 95.7 | 126 | 97.6 | 103 | 96.2 | 102 | 96 | 99.8
12 | O=C(O)CC[C@H]1CC[C@@](c2cc(F)ccc2F)(S(=O)(=O)c2ccc(Cl)cc2)CC1 [MK-0752] (1 nM) | 93 | 99.5 | 104 | 112 | 95.6 | 107 | 111 | 97.5 | 104 | 102 | 103 | 102 | 87.3 | 102 | 113 | 102 | 98.7 | 98.5 | 101
13 | CCCCCOC(=O)Nc1nc(=O)n([C@@H]2O[C@H](C)[C@@H](O)[C@H]2O)cc1F [Capecitabine] (10 nM) | 93.2 | 96.9 | 100 | 103 | 99.6 | 110 | 107 | 86.9 | 98.1 | 99.5 | 99.6 | 96.4 | 99.6 | 102 | 105 | 97.4 | 98.8 | 91.9 | 98.7
14 | CCc1cnn2c(NCc3ccc[n+]([O-])c3)cc(N3CCCC[C@H]3CCO)nc12 [Dinaciclib] (1 nM) | 92.5 | 107 | 97.8 | 103 | 104 | 115 | 103 | 101 | 109 | – | 95.7 | 98.3 | 82.1 | 99.6 | 102 | 101 | 98.5 | 97.8 | 98.5
15 | CC[C@H](CC#N)OC(=O)N[C@@H](C)c1cccc(NC(=O)Nc2ccc(-c3cnco3)c(OC)c2)c1 [AVN944] (10 nM) | 91.5 | 97.3 | 97.5 | 96.2 | 100 | 99.3 | 82.7 | 88.6 | 96.4 | – | 89.4 | 101 | 122 | 95 | 99.7 | 95.8 | 96 | 111 | 97.6
16 | C[C@@H]1C[C@H]2[C@@H]3CCC4=CC(=O)C=C[C@]4(C)[C@@]3(F)[C@@H](O)C[C@]2(C)[C@@]1(O)C(=O)CO [Dexamethasone] (10 nM) | 97.4 | 103 | 101 | 95.2 | 89.8 | 100 | 95.2 | 100 | 104 | – | 130 | 137 | 113 | 83.2 | 94 | 116 | 97.5 | 97.9 | 102
17 | C[C@@H](C(=O)O)c1ccc(-c2ccccc2)c(F)c1 [Tarenflurbil] (10 nM) | 94.5 | 101 | 97 | 93.7 | 98 | 92.2 | 94.9 | 106 | 104 | – | 90.8 | 94.6 | 123 | 96.7 | 97.5 | 95.3 | 101 | 86.7 | 105
18 | Cn1nnc2c(C(N)=O)ncn2c1=O [Temozolomide] (10 nM) | 102 | 98.5 | 99.4 | 97.5 | 96.7 | 102 | 98 | 88.7 | 100 | – | 97 | 99.5 | 110 | 97.9 | 92.1 | 103 | 95.8 | 97 | 101
19 | CCN(CC)CCOc1ccc(C(=C(Cl)c2ccccc2)c2ccccc2)cc1 [Clomifene] (10 nM) | 99.5 | 104 | 103 | 102 | 100 | 102 | 112 | 96.3 | 103 | – | 107 | 105 | 122 | 106 | 107 | 99.9 | 111 | 99.2 | 101
20 | CC(C)(C)Cn1c(N)nc2ccc(-c3[nH]c(C(C)(C)C)nc3-c3ccc(F)cc3)nc21 (10 nM) | 95.9 | 104 | 105 | 105 | 95.6 | 110 | 104 | 95.5 | 106 | – | 103 | 99.7 | 97.5 | 97.8 | 106 | 97.8 | 95.1 | 102 | 104
21 | COc1cc2c(N3CCN(C(=O)Nc4ccc(OC(C)C)cc4)CC3)ncnc2cc1OCCCN1CCCCC1 [Tandutinib] (1 nM) | 94.9 | 103 | 102 | 103 | 103 | 101 | 95.1 | 90.9 | 98.6 | – | 99.9 | 101 | 118 | 104 | 99.8 | 107 | 99 | 102 | 107
